From publication PMC2806030, “Inhibition of mammalian S6 kinase by resveratrol suppresses autophagy” (Aging (Albany NY), 2009) come the findings set out here.

Holding throughout (assay): biochemical
Design in all cases: Upstate KinaseProfiler in vitro kinase activity assay, per cent of DMSO control
Holding throughout (details): read-out: Activity (% of Control)

One assay addresses T1, PKA(h) (Homo sapiens, UniProt P17612).
T1 construct: gene PRKACA
An outline of the steps:
(§1)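 Profiling done with Upstate KinaseProfiler service across 100 kinases, resveratrol tested at 20 μM; activity expressed relative to control.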

The target in the next assay is T2, IKKß(h) (Homo sapiens, UniProt O14920).
T2 construct: gene IKBKB
An outline of the steps:
as §1

The next assay has as its target NEK3(h) (Homo sapiens, UniProt P51956). An outline of the steps: as §1
A further assay has as its target T3, ZAP-70(h) (Homo sapiens, UniProt P43403).
T3 construct: gene ZAP70
The gist of the method:
as §1

In another assay the target is T4, Snk(h) (Homo sapiens, UniProt Q9NYY3).
T4 construct: gene PLK2
An outline of the steps: as §1

Another assay deals with T5, Aurora-A(h) (Homo sapiens, UniProt O14965).
T5 construct: gene AURKA
The gist of the method:
as §1

For another assay, the target named is T6, Ros(h) (Homo sapiens, UniProt P08922).
T6 construct: gene ROS1
An outline of the steps:
as §1

A further assay has as its target PAK3(h) (Homo sapiens, UniProt O75914). An outline of the steps:
as §1

The next assay deals with T7, MSK2(h) (Homo sapiens, UniProt O75676).
T7 construct: gene RPS6KA4
The gist of the method: as §1

The next assay addresses CDK2/cyclinA(h) (Homo sapiens, UniProt P24941). The gist of the method:
as §1

A further assay addresses T8, Abl(T315I)(h) (Homo sapiens, UniProt P00519, T315I).
T8 construct: gene ABL1
The gist of the method: as §1

Another assay has as its target NEK2(h) (Homo sapiens, UniProt P51955). The gist of the method:
as §1

A further assay deals with T9, PDK1(h) (Homo sapiens, UniProt O15530).
T9 construct: gene PDPK1
An outline of the steps:
as §1

Another assay addresses LIMK1(h) (Homo sapiens, UniProt P53667). The gist of the method:
as §1

A further assay concerns the target EphB2(h) (Homo sapiens, UniProt P29323). The gist of the method:
as §1

Another assay addresses T10, PI 3-Kinaseβ(h) (Homo sapiens, UniProt P42338).
T10 construct: gene PIK3CB
An outline of the steps:
as §1

For another assay, the target named is T11, cKit(h) (Homo sapiens, UniProt P10721).
T11 construct: gene KIT
An outline of the steps: as §1

For the next assay, the target named is T12, TrkB(h) (Homo sapiens, UniProt Q16620).
T12 construct: gene NTRK2
The gist of the method:
as §1

The structures appear in SMILES notation.

T11 sequence (P10721 whole entry): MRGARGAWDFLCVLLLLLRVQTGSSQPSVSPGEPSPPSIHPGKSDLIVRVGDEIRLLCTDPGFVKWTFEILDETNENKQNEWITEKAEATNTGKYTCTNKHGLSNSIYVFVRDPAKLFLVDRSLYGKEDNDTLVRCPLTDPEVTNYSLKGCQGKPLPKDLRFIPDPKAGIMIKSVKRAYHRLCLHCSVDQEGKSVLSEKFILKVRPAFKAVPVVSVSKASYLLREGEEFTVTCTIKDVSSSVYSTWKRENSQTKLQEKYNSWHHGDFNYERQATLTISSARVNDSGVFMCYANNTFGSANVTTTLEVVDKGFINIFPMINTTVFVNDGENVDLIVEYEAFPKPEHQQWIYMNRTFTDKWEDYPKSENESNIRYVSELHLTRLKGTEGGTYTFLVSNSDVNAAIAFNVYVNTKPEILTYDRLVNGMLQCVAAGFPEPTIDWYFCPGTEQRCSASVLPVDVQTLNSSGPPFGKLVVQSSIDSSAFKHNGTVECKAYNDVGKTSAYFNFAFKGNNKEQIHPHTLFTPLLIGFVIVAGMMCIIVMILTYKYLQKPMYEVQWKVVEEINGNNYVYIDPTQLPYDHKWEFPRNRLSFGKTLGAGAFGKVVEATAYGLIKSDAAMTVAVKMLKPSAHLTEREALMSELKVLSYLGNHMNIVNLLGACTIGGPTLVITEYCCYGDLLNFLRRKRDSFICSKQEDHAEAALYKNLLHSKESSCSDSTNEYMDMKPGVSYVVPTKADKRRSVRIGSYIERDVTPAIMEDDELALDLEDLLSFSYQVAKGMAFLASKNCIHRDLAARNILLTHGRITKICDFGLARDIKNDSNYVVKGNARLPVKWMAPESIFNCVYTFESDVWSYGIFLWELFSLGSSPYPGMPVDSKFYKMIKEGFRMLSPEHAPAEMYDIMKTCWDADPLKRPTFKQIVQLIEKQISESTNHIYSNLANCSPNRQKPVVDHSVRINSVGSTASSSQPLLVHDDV
Sequence of LIMK1(h) (P53667 whole entry): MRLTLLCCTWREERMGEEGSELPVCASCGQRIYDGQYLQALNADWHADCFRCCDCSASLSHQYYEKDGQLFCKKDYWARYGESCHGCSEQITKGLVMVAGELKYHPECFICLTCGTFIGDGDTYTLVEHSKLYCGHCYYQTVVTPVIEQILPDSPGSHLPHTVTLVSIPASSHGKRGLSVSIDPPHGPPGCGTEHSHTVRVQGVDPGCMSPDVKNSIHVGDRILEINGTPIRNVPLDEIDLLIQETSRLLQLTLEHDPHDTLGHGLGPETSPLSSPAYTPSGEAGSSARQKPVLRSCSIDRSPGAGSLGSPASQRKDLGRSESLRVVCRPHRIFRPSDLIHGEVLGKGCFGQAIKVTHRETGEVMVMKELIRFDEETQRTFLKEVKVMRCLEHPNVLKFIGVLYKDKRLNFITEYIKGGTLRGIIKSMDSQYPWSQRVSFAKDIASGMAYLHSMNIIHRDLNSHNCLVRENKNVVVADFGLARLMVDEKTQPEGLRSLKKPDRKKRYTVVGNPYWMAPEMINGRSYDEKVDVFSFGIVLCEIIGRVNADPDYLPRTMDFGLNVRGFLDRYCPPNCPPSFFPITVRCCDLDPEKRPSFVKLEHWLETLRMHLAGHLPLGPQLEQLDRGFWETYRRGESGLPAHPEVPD
Sequence of NEK2(h) (P51955 whole entry): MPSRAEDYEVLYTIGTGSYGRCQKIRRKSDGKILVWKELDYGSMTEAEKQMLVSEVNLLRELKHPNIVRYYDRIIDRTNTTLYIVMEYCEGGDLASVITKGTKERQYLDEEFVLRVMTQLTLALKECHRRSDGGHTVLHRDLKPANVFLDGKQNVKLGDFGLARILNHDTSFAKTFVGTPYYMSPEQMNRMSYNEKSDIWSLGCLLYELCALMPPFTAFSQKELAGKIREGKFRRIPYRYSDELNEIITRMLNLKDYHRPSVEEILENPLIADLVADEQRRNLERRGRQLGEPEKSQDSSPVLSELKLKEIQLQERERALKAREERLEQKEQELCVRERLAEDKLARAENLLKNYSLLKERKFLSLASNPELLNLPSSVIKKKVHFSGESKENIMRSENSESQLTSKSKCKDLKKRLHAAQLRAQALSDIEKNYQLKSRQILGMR
T3 sequence (P43403 whole entry): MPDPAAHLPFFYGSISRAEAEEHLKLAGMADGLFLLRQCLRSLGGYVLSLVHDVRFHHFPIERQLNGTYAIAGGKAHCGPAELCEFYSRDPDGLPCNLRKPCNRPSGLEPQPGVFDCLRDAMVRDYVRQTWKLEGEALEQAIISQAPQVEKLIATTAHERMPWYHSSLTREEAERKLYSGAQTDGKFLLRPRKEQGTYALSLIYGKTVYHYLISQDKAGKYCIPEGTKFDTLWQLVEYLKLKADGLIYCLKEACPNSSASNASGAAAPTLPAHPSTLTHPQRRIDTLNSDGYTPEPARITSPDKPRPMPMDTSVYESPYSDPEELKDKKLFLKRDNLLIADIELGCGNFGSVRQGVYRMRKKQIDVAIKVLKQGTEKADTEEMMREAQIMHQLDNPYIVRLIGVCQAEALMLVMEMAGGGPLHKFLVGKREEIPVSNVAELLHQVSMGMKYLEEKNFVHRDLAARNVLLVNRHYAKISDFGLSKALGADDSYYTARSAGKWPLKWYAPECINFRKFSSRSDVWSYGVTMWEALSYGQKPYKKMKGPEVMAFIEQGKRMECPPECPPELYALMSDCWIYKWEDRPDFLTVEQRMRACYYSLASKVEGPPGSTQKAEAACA
T4 sequence (Q9NYY3 whole entry): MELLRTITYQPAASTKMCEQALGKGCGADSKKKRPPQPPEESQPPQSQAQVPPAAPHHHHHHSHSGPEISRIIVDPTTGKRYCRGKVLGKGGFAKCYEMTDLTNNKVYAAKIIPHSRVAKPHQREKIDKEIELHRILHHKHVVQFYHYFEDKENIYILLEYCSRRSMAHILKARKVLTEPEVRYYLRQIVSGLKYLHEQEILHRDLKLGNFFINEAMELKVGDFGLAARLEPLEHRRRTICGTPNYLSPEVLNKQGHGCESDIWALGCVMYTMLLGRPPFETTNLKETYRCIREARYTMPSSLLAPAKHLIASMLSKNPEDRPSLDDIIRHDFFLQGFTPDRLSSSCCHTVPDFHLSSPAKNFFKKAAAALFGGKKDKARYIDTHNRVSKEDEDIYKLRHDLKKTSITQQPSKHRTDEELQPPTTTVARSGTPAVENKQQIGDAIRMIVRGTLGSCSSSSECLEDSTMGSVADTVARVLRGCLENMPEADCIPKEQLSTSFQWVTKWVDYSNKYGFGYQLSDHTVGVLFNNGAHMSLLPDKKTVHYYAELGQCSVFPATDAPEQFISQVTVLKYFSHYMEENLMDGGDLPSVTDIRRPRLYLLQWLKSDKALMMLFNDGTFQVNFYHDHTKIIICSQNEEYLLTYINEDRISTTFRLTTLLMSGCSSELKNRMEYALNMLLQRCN
T5 sequence (O14965 whole entry): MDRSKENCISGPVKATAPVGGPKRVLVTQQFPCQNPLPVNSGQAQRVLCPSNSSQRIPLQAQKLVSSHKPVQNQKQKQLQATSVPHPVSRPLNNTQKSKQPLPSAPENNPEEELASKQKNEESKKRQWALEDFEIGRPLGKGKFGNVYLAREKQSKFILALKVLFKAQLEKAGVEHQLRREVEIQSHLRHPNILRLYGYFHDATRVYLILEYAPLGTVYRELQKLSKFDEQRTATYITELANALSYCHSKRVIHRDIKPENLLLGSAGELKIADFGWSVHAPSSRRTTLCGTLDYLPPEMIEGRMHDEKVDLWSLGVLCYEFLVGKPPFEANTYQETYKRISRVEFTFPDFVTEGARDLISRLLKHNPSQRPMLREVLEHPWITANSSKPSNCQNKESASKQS
Sequence of EphB2(h) (P29323 whole entry): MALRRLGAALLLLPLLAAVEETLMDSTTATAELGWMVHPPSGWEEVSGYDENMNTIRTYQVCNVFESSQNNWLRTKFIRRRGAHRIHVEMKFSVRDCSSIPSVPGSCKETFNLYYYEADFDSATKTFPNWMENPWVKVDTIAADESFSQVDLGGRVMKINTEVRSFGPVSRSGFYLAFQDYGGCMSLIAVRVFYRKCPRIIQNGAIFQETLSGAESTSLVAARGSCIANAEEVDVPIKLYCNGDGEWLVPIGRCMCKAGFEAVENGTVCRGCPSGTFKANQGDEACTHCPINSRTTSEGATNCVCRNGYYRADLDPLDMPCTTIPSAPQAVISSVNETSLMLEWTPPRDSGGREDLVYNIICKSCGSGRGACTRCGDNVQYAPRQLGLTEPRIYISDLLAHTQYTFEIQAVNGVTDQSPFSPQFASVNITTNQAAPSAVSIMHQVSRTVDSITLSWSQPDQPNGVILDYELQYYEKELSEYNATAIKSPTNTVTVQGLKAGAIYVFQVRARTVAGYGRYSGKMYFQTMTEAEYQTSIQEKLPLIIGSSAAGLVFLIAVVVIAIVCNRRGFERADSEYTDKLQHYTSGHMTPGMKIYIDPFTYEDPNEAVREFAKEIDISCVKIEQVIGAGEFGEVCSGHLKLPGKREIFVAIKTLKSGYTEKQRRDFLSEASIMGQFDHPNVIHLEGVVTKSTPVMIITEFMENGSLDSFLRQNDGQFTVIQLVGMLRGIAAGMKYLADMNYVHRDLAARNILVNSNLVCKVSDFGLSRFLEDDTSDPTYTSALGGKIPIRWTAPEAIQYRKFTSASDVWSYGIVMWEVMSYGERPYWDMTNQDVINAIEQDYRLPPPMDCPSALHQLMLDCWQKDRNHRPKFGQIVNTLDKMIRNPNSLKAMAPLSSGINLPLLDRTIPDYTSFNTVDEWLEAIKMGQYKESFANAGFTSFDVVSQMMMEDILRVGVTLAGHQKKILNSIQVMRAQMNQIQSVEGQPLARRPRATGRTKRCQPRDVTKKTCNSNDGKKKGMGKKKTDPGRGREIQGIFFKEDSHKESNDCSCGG

On to `Oc1ccc(/C=C/c2cc(O)cc(O)c2)cc1` [Res, resveratrol], for which the remaining activity at 20 µM at PKA(h) came to 100%; on IKKß(h), 116 ± 2%; at NEK3(h), 96 ± 8%; on ZAP-70(h) it was 141 ± 2%; at Snk(h) it was 81 ± 3%; at Aurora-A(h), 65 ± 1%. Also, the remaining activity at 20 µM amounted to 102 ± 4% at Ros(h); 46% on PAK3(h); 60 ± 1% at MSK2(h); 80 ± 1% at CDK2/cyclinA(h); 100 ± 2% on Abl(T315I)(h); 102 ± 4% on NEK2(h). In addition, the remaining activity at 20 µM amounted to 108 ± 7% at PDK1(h); 84 ± 4% on LIMK1(h); 113 ± 1% at EphB2(h); 107 ± 1% at PI 3-Kinaseβ(h); 68% at cKit(h); 98 ± 1% on TrkB(h).
